# Patent US9199959B2, “HIV replication inhibitor” (Shionogi & Co., Ltd., priority 2011, dated 2015)
# Columns and labels:
# [1] = biological target: T1, human ether-a-go-go related gene (hERG) channel (Homo sapiens, UniProt Q12809); assay: hERG test, whole cell patch clamp; format: cell-based; conditions: HEK293 cells expressing hERG channel
# T1 construct: expressed in transfected cells; host or cells: HEK293
# Description: For the purpose of assessing risk of an electrocardiogram QT interval prolongation, effects on delayed rectifier K+ current (IKr), which plays an important role in the ventricular repolarization process of the compound of the present invention, was studied using HEK293 cells expressing human ether-a-go-go related gene (hERG) channel.
# After a cell was retained at a membrane potential of −80 mV by whole cell patch clamp method using an automated patch clamp system (PatchXpress 7000A, Axon Instruments Inc.), IKr induced by depolarization pulse stimulation at +40 mV for 2 seconds and, further, repolarization pulse stimulation at −50 mV for 2 seconds was recorded. […] From the recording IKr, an absolute value of the tail peak current was measured based on the current value at the resting membrane potential using an analysis software (DataXpress ver. 1, Molecular Devices Corporation). Further, the inhibition relative to the tail peak current before application of the test substance was calculated, and compared with the vehicle-applied group (0.1% dimethyl sulfoxide solution) to assess influence of the test substance on IKr.
# CYP2D6 = biological target: T2, CYP2D6 (Homo sapiens, UniProt P10635); assay: CYP inhibition assay, dextromethorphan O-demethylation; format: in vitro ADME; conditions: pooled human liver microsomes, probe dextromethorphan (O-demethylation), 5 μmol/L, pooled human hepatic microsome
# T2 construct: enzyme, pooled human hepatic microsome 0.2 mg protein/mL; from tissue; host or cells: pooled human liver microsomes
# T2 sequence (P10635 whole entry): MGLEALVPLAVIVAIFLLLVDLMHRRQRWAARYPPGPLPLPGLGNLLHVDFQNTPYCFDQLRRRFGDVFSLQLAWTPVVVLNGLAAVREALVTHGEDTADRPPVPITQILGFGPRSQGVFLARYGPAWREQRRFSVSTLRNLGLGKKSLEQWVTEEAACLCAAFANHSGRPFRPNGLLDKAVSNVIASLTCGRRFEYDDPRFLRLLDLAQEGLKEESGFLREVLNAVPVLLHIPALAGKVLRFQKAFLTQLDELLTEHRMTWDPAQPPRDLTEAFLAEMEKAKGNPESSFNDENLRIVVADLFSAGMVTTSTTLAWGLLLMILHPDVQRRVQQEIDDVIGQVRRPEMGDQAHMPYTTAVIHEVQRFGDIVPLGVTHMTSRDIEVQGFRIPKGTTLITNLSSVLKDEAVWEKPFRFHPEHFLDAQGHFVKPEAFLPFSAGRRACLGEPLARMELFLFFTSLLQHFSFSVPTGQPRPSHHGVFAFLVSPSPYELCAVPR
# Method: Using commercially available pooled human hepatic microsome, and employing, as markers, 7-ethoxyresorufin O-deethylation (CYP1A2), tolbutamide methyl-hydroxylation (CYP2C9), mephenytoin 4′-hydroxylation (CYP2C19), dextromethorphan O-demethylation (CYP2D6), and terfenedine hydroxylation (CYP3A4) as typical substrate metabolism reactions of human main five CYP enzyme forms (CYP1A2, 2C9, 2C19, 2D6, 3A4), an inhibitory degree of each metabolite production amount by a test compound was assessed.
# The reaction conditions were as follows: substrate, 0.5 μmol/L ethoxyresorufin (CYP1A2), 100 μmol/L tolbutamide (CYP2C9), 50 μmol/L S-mephenytoin (CYP2C19), 5 μmol/L dextromethorphan (CYP2D6), 1 μmol/L terfenedine (CYP3A4); reaction time, 15 minutes; reaction temperature, 37° C.; enzyme, pooled human hepatic microsome 0.2 mg protein/mL; test drug concentration, 1, 5, 10, 20 μmol/L (four points).
# Each five kinds of substrates, human hepatic microsome, and a test drug in 50 mmol/L Hepes buffer as a reaction solution was added to a 96-well plate as the composition as described above, NADPH, as a cofactor was added to initiate metabolism reactions as markers and, after the incubation at 37° C. for 15 minutes, a methanol/acetonitrile=1/1 (v/v) solution was added to stop the reaction. After the centrifugation at 3000 rpm for 15 minutes, resorufin (CYP1A2 metabolite) in the supernatant was quantified by a fluorescent multilabel counter and tolbutamide hydroxide (CYP2C9 metabolite), mephenytoin 4′ hydroxide (CYP2C19 metabolite), dextrorphan (CYP2D6 metabolite), and terfenadine alcohol (CYP3A4 metabolite) were quantified by LC/MS/MS.
# A reaction system containing only DMSO which is a solvent for dissolving a drug was adopted as a control (100%), and the remaining activity (%) was calculated, then IC50 was calculated by reverse presumption with a logistic model using a concentration and an inhibition rate.
# [2] = Metabolism stability test, human liver microsomes; format: in vitro ADME; conditions: 30 minutes, 37° C., amount at 0 minute = 100%
# Method: Commercially available pooled human hepatic microsomes and a test compound were reacted for a constant time, then a remaining rate was calculated by comparing a reacted sample and an unreacted sample, thereby a degree of metabolism of the test compound in liver was assessed. A reaction was performed (oxidative reaction) at 37° C. for 0 minute or 30 minutes in the presence of 1 mmol/L NADPH in 0.2 mL of a buffer (50 mmol/L Tris-HCl, pH 7.4, 150 mmol/L potassium chloride, 10 mmol/L magnesium chloride) containing 0.5 mg protein/mL of human liver microsomes. After the reaction, 50 μl, of the reaction solution was added to 100 μL of a methanol/acetonitrile=1/1 (v/v), mixed and centrifuged at 3000 rpm for 15 minutes. The test compound in the supernatant was quantified by LC/MS/MS, and a remaining amount of the test compound after the reaction was calculated, letting a compound amount at 0 minute reaction time to be 100%. Hydrolysis reaction was performed in the absence of NADPH and glucuronidation reaction was in the presence of 5 mM UDP-glucuronic acid in place of NADPH, followed by similar operations.
# [3] = Metabolism stability test, rat liver microsomes; format: in vitro ADME; conditions: amount at 0 minute = 100%
# [4] = Solubility test, 1% DMSO addition, artificial intestinal juice pH 6.8; format: physicochemical; conditions: artificial intestinal juice with 1% DMSO, fassgf or other biorelevant, kinetic from dmso stock; pH 6.8, 1% DMSO addition, 16 hours at 25° C.
# Method: The solubility of each compound was determined under 1% DMSO addition conditions. A 10 mmol/L solution of the compound was prepared with DMSO, and 6 μL of the solution was added to 594 μL of an artificial intestinal juice (water and a 118 mL solution of 0.2 mol/L NaOH reagent are added to 250 mL of 0.2 mol/L potassium dihydrogen phosphate reagent to reach 1000 mL) with a pH of 6.8. The mixture is left standing for 16 hours at 25° C., and the mixture is vacuum-filtered. The filtrate is two-fold diluted with methanol/water=1/1 (v/v), and the compound concentration in the filtrate is measured with HPLC or LC/MS/MS by the absolute calibration method.
# T1 sequence (Q12809 whole entry): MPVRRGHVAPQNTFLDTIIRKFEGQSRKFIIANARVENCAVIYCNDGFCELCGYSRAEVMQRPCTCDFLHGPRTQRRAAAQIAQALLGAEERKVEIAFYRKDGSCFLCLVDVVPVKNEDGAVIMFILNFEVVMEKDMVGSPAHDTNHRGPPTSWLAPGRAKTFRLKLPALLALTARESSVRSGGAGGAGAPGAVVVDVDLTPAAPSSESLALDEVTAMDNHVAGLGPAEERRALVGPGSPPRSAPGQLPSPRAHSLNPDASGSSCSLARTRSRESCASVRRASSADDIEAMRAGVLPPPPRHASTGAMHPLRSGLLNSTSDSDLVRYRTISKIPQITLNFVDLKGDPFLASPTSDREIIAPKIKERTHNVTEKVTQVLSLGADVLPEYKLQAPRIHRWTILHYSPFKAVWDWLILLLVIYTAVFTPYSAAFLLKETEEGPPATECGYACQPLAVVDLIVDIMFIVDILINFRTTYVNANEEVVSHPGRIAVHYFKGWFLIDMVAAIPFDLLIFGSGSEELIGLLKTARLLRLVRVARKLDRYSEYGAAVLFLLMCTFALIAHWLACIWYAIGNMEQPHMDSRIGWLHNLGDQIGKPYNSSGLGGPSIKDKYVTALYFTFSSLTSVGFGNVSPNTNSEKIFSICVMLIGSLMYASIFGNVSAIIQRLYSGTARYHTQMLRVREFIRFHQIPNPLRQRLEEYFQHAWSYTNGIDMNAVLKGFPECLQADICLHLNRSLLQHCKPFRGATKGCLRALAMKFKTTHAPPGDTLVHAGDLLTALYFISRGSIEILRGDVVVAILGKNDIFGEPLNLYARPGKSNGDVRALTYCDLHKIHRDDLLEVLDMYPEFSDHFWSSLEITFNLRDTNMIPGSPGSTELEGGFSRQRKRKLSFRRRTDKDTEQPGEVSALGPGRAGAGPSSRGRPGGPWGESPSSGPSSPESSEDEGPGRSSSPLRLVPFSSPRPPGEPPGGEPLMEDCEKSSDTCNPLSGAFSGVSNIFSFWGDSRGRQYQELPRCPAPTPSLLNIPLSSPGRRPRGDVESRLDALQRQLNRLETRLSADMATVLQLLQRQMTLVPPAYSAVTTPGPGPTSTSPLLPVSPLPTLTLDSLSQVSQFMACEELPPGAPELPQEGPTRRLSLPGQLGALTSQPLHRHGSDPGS
smiles,measurement,setting,value
CC(=O)Nc1c(C)c(C(OC(C)(C)C)C(=O)O)c(-c2ccc(C)c(C)c2)c(C)c1-c1ccc(C)c(C)c1 (centres unmarked) [Compound I-6],inhibition ratio of IKr tail peak current,[1],3.5%
same,IC50 at 15 min,CYP2D6,≥ 20 µM
same,remaining amount of compound in liver microsomes of human,[2],79%
same,remaining amount of compound in liver microsomes of rat,[3],58%
same,solubility at 16 h,[4],≥ 50 µM
